# Assays:
# Assay type in all cases: biochemical
# [1] = test system: natural (native) nucleotides; test: Initial characterization: specific activity with natural (native) nucleotides
# Procedure: The recombinant polymerase is initially evaluated on the quality of the protein preparation and basic catalytic activity. The polymerase's activity is analyzed with natural (native) nucleotides, and its specific activity (units/mg) is determined. Only catalytically competent mutants are selected for the next steps.
# [2] = test system: dTTP, dATP, dGTP; test: Assay with three native nucleotides (dGTP, dTTP and dATP); conditions: three native nucleotides at 20 μM; circular template, no G residues
# Procedure: (§1) The Φ29 DNA polymerase (parental enzyme or mutant) was preincubated with DNA template (72 nucleotide circular DNA including mostly repetitive sequence AGTC) with annealed DNA primer. The preincubation mix includes three native nucleotides (dTTP, dATP and dGTP) and a terminal labeled nucleotide analogue (A488dC4P or A568dC4P) at 10 μM concentration. After a short preincubation, the reaction was started with MnCl2. The reaction was stopped with EDTA, and the products were separated using agarose gel electrophoresis and stained with SYBR Gold (Invitrogen). The average length of the DNA generated with DNA polymerase was determined and used to estimate the polymerization rate. See, e.g., Table 2 Columns G and H.
# The Φ29 DNA polymerase (parental enzyme or mutant) was preincubated with DNA template (circular DNA including mostly repetitive sequence CAT, no G residues) with annealed DNA primer; the preincubation mix includes three native nucleotides (dTTP, dATP and dGTP). All subsequent steps were basically as described above in the section entitled “Assay with a single analogue at low concentration (10 μM) and three native nucleotides.” See, e.g., Table 2 Column B.
# [3] = test system: A488dC4P; test: Nucleotide analogue concentration dependence of the polymerization rate, A488dC4P; conditions: for A488dC4P, kel / Km: circular AGTC template, dTTP, dATP, dGTP 20 μM each; for Km as % of the Km of N62D Φ29 for A488dC4P: relative to N62D Φ29, from Table 2
# Procedure: (§2) The most promising polymerase mutants are characterized by determination of the polymerization rate and Km for A488dC4P and A568dC4P and a subset of natural nucleotides (dATP, dGTP and dTTP), using a circular template (AGTC). Velocity is measured at several different concentrations of the analogs, A488dC4P (a representative good substrate) and A568dC4P (a representative less preferred substrate).
# (§3) The Φ29 DNA polymerase (parental enzyme or mutant) was preincubated with a DNA template (72 nucleotide circular DNA including mostly repetitive sequence AGTC) with annealed DNA primer. The preincubation mix includes also three native nucleotides (dTTP, dATP and dGTP 20 μM each) and various concentrations of the terminally labeled analogue (A488dC4P or A568dC4P). All subsequent steps were basically as described above in the section entitled “Assay with a single analogue at low concentration (10 μM) and three native nucleotides.” An average length of the DNA products generated with DNA polymerase at an individual analogue concentration was determined, and the results were fitted with the equation k=kel*[S]*(Kd+[S])^−1 where k is the observed polymerization rate, kel is the polymerization rate at saturating substrate concentration (kel measures incorporation of multiple residues), and [S] is substrate concentration. See, e.g., Table 2 Columns C, D, E, and F.
# [4] = test system: A568dC4P; test: Nucleotide analogue concentration dependence of the polymerization rate, A568dC4P; conditions: for A568dC4P, kel / Km: circular AGTC template, dTTP, dATP, dGTP 20 μM each; for Km as % of the Km of N62D Φ29 for A568dC4P: relative to N62D Φ29, from Table 2
# Procedure: as §2, §3
# [5] = test system: A488dC4P; test: Assay with a single analogue at low concentration (10 μM) and three native nucleotides, A488dC4P; conditions: single analogue at 10 μM and three native nucleotides
# Procedure: as §1
# [6] = test system: A568dC4P; test: Assay with a single analogue at low concentration (10 μM) and three native nucleotides, A568dC4P; conditions: single analogue at 10 μM and three native nucleotides
# Procedure: as §1
# [7] = test system: A488dA4P, A633dC4P, A546dG4P, A594dT4P; test: Assay with four terminally labeled nucleotide analogs; conditions: four terminally labeled analogs all at 10 μM
# Procedure: Polymerization rate (bases/min) with four analogues at 10 μM (A488dA4P, A633dC4P, A546dG4P and A594dT4P) and circular template (AGTC, a 72mer circular template largely consisting of a repeating AGTC motif) is determined.
# The procedure is basically as described above in the section entitled “Assay with a single analogue at low concentration (10 μM) and three native nucleotides,” with the exception that in this assay all nucleotides are terminally labeled (A488dA4P, A633dC4P, A546dG4P, A594dT4P all at 10 μM). See, e.g., Table 2 Column I.
# [8] = test system: DNA template (72 nucleotide circular DNA) with annealed DNA primer; test: Processivity assay; conditions: dNTP, MnCl2, heparin trap, 20 min; 1.0 minus Poff
# Text: The processivity (dissociation/kb) of the polymerase is estimated in a primer extension reaction performed in the presence of “Trap” (unlabeled competitor DNA or heparin). The processivity assay is designed to select mutants that retain the capability to synthesize a long DNA product in a continuous polymerization run (without polymerization reinitiation) with natural nucleotides. Mutants with a significant decrease in processivity are not selected for the next step.
# The Φ29 DNA polymerase (parental enzyme or mutant) was preincubated with DNA template (72 nucleotide circular DNA including mostly repetitive sequence AGTC) with annealed DNA primer. After a short preincubation, the reaction was started with a starting mix including MnCl2, dNTP and heparin. Including the heparin in the reaction prevents polymerization from reinitiating after the polymerase dissociates from the template/primer, so that all generated DNA products are a result of continuous polymerization runs. After 20 min incubation, the reaction was stopped with EDTA and the products were separated using agarose gel electrophoresis and stained with SYBR Gold (Invitrogen). The DNA products were analyzed basically as described in Bibillo A, Eickbush T H. J Biol Chem. 2002 Sep. 20; 277(38):34836-45, Epub 2002 Jul. 5. The results were fitted with single exponential equation A*exp(−Poff*kb) where A is amplitude, Poff is the probability of premature polymerase dissociation, and kb is DNA length (1000 nucleotides). The probability of chain elongation (processivity) can be readily calculated by subtracting the Poff value from 1.0. See, e.g., Table 2 Column J.
# [9] = test system: Alexa633-O-dC4P; test: Km and Vmax versus analogue Alexa633-O-dC4P; conditions: Alexa633-O-dC4P (A633dC4P)
# Procedure: (§4) Km and Vmax were determined for exemplary recombinant Phi29 polymerases and various nucleotide analogues.
# [10] = test system: Alexa555-C2-dT4P; test: Km and Vmax versus analogue Alexa555-C2-dT4P
# Procedure: as §4
# [11] = test system: A633dC4P; test: Screening: rate with A633dC4P and dA, dG, dTTP; conditions: for Rate High: 25 μM A633dC4P with 20 μM dA; for Ratio (Low/High): (rate at 5 μM A633dC4P)/(rate at 25 μM A633dC4P), each with 20 μM dA, 1 mM MnCl2, higher ratio = lower Km
# [12] = test system: Alexa488-O-dA4P, FAM-Alexa532-O-dG4P, FAM-Alexa594-O-dT4P, Alexa633-O-dC4P; test: Screening: rate with set of four nucleotide analogues; conditions: four analogues at 10 μM each, 1 mM MnCl2
# [13] = test system: Alexa532-O-dG4P; test: Km and Vmax versus analogue Alexa532-O-dG4P
# Procedure: as §4
Substance,Specific Activity [1],"dTTP, dATP, dGTP (no G fork) V at 20 μM [2]","A488dC4P, kel [3] [bp/min]",Km [3] [µM],Km as % of the Km of N62D Φ29 for A488dC4P [3],"A568dC4P, kel [4]",Km [4] [µM],Km as % of the Km of N62D Φ29 for A568dC4P [4],"A488dC4P, V at 10 μM [5]","A568dC4P, V at 10 μM [6]","A488dA4P, A633dC4P, A546dG4P, A594dT4P, V at 10 μM [7]",Processivity [8] [kb^−1],Km [9] [µM],Km [10] [µM],Rate High [11],Ratio (Low/High) [11],Hz Rate [12] [Hz],Km [13] [µM]
"His-E375H-N62D: Phi 29 polymerase with E375H and N62D mutations (SEQ ID NOs:4, 25)","10,945,000 units/mg",780,950,8,about 40%,930,11,about 15%,411,366,123,0.9510,17,15,510.1,0.445,9.4,
"N62D: E375K: Phi 29 polymerase with E375K and N62D mutations (SEQ ID NOs:6, 27)",,,,,,,,,,,,,12,,516.1,0.425,6.2,
"His-K135A-N62D: His-tagged Phi 29 polymerase with K135A and N62D mutations (SEQ ID NOs:3, 24)","12,454,000 units/mg",840,880,24,,,,,292,154,43,0.9801,,,272.0,0.412,1.6,
"His-E375S-N62D: Phi 29 polymerase with E375S and N62D mutations (SEQ ID NOs:5, 26)","10,961,000 units/mg",940,1190,15,about 75%,1300,28,about 38%,420,332,74,0.9815,16.5,,528.4,0.335,5.9,40

# Reference: patent US10717968B2, “Polymerases for nucleotide analogue incorporation” (Pacific Biosciences of California, Inc., priority 2005, dated 2020)
